Test results: patent US20150183834A1 (priority 2005, published 2015)

Key:
human PBMC [1] = format: cell-based
Rhesus macaque PBMC [2] = format: cell-based, Rhesus (Macaca mulatta)
human PBMC [3] = format: cell-based; remark: listed apart in the source
Rhesus macaque PBMC [4] = format: cell-based, Rhesus (Macaca mulatta); remark: listed apart in the source
human PBMC [5] = format: cell-based; remark: listed apart in the source
Rhesus macaque PBMC [6] = format: cell-based, Rhesus (Macaca mulatta); remark: listed apart in the source
human PBMC [7] = format: cell-based; remark: listed apart in the source
[8] = system: purified human CD4+ and CD8+ T cells; format: cell-based
[9] = system: human peripheral blood mononuclear cells (PBMCs); format: cell-based
human PBMC [10] = format: cell-based; remark: listed apart in the source
protein kinase C = settings: cited from earlier work

ILNRKAIDFLLQRWGGT [ZEBOV peptide]
fold decrease in the percentage of cells in the S phase (human PBMC [1]): 3.5 fold | fold increase in the number of cells with hypodiploid DNA content (human PBMC [1]): 8.8 fold | percentage of BrdU labeled CD4+ cells (human PBMC [1]): 3.9±0.6% | percentage of BrdU labeled CD8+ cells (human PBMC [1]): 4.8±1.8% | percentage of cells in S phase (human PBMC [1]): 8.0±0.5% | percentage of cells with hypodiploid DNA (human PBMC [1]): 22.0±2.2% | T cell activation (in words) (Rhesus macaque PBMC [2]): Decreased | depletion of CD4+ T cells and CD8+ T cells (in words) (Rhesus macaque PBMC [2]): Significant depletion | fold increase in apoptotic CD4+ cells (human PBMC [3]): 3.6 fold | fold increase in apoptotic CD8+ cells (human PBMC [3]): 2.0 fold | percentage of Annexin V+ PI- CD4+ (human PBMC [3]): 43.6±5.8% | percentage of Annexin V+ PI− CD8+ (human PBMC [3]): 29.7±3.7% | apoptosis (in words) (Rhesus macaque PBMC [4]): increased | IL-1β (human PBMC [5]): dose-dependent reduction | IL-4 (human PBMC [5]): trend toward decrease | IL-6 (human PBMC [5]): no pattern | IL-10 (human PBMC [5]): increase | MCP-1 (human PBMC [5]): dose-dependent reduction | MIP1-α (human PBMC [5]): no effect | TNF-α (human PBMC [5]): dose-dependent reduction | anti-CD3/CD28-induced production of IFN-γ (human PBMC [5]): suppressed | anti-CD3/CD28-induced production of IL-12p40 (human PBMC [5]): suppressed | production of IL-2 (human PBMC [5]): suppressed | IFN-γ (Rhesus macaque PBMC [6]): significant decrease | IL1-β (Rhesus macaque PBMC [6]): significant decrease | IL-12p40 (Rhesus macaque PBMC [6]): significant decrease | Levels of IL-8 (Rhesus macaque PBMC [6]): did not alter | Levels of MIP1-α (Rhesus macaque PBMC [6]): did not alter | TNF-α (Rhesus macaque PBMC [6]): significant decrease | fold decrease in the number of CD4+ T cells (human PBMC [7]): 7.4 fold | fold decrease in the number of CD8+ T cells (human PBMC [7]): 4.4 fold | fold reduction in the cell surface expression of CD4 (human PBMC [7]): 3.5 fold | fold reduction in the cell surface expression of CD8 (human PBMC [7]): 4.2 fold | mean fluorescence intensity value for CD4 expression ± SD (human PBMC [7]): 961±40 | mean fluorescence intensity value for CD8 expression ± SD (human PBMC [7]): 4,025±75 | number of CD4+ T cells (human PBMC [7]): 5.5±1.8 ×10^4 | number of CD8+ T cells (human PBMC [7]): 5.8±1.6 ×10^4 | percentage of cells positive for CD4 and CD8 (human PBMC [7]): significant decrease | activation and cell death in purified CD4+ or CD8+ T cell population [8]: sufficient to induce activation and cell death | levels of IL-2 [9]: decreased levels | levels of IL-10 [9]: increased levels | levels of IL-12 [9]: decreased levels | mean fluorescent intensity of CD25 expression on CD4+ and CD8+ T cells (human PBMC [10]): decreased | mean fluorescent intensity of CD69 expression on CD4+ and CD8+ T cells (human PBMC [10]): decreased | percentage of CD4+ T cells that are CD25+ (human PBMC [10]): 65.9±11.8% | percentage of CD4+ T cells that are CD69+ (human PBMC [10]): 69.4±3.4% | percentage of CD8+ T cells that are CD25+ (human PBMC [10]): 43.9+9.0% | percentage of CD8+ T cells that are CD69+ (human PBMC [10]): 67.9±9.6% | percentages of both CD69+CD4+ T cells and CD69+CD8+ T cells (in words) (human PBMC [10]): significant reduction

ILNRKAIDFLLQRWGGT [SEBOV peptide]
induction of apoptosis in CD4+ and CD8+ T cells (in words) (human PBMC [3]): Effects were similar | CD69+CD4+ T cells (in words) (human PBMC [10]): trend toward reduction | percentage of CD69+ CD8+ T cells (in words) (human PBMC [10]): significant reduction

LINRHAIDFLLTRWGGT [MARV peptide]
induction of apoptosis in CD4+ and CD8+ T cells (in words) (human PBMC [3]): Effects were similar | percentage of cells positive for CD4 and CD8 (human PBMC [7]): significant decrease | CD69+CD4+ T cells (in words) (human PBMC [10]): trend toward reduction | percentage of CD69+ CD8+ T cells (in words) (human PBMC [10]): significant reduction | percentages of both CD69+CD4+ T cells and CD69+CD8+ T cells (in words) (human PBMC [10]): significant reduction

LQNRRGLDLLFLKEGGL [CKS-17, reference compound]
activity of protein kinase C (protein kinase C): blocks the activity | levels of IL-2 [9]: decreased levels | levels of IL-10 [9]: increased levels | levels of IL-12 [9]: decreased levels

LLNRKAIDFLLQRWGGT [REBOV peptide]
BrdU labeling (in words) (human PBMC [1]): No significant change | cycling pattern (in words) (human PBMC [1]): No change | depletion of CD4+ T cells and CD8+ T cells (in words) (Rhesus macaque PBMC [2]): Significant depletion | fold decrease in the number of CD4+ T cells (Rhesus macaque PBMC [2]): 4.5 fold | fold decrease in the number of CD8+ T cells (Rhesus macaque PBMC [2]): 4.6 fold | mean fluorescent intensity of CD69 expression on CD4+ and CD8+ T cells (Rhesus macaque PBMC [2]): decreased | number of CD4+ T cells (Rhesus macaque PBMC [2]): 4.8±0.7 ×10^4 | number of CD8+ T cells (Rhesus macaque PBMC [2]): 2.3±0.4 ×10^4 | percentage of CD4+ rhesus T cells that are CD69+ (Rhesus macaque PBMC [2]): 63.6±1.9% | percentage of CD8+ rhesus T cells that are CD69+ (Rhesus macaque PBMC [2]): 60.7±3.1% | induction of apoptosis in CD4+ and CD8+ T cells (in words) (human PBMC [3]): No significant induction | fold increase in apoptotic CD4+ cells (Rhesus macaque PBMC [4]): 3.1 fold | fold increase in apoptotic CD8+ cells (Rhesus macaque PBMC [4]): 2.6 fold | percentage of Annexin V+ P1− CD8+ (Rhesus macaque PBMC [4]): 31.8±3.3% | cytokine production overall (in words) (human PBMC [5]): No effects | IFN-γ (Rhesus macaque PBMC [6]): significant decrease | IL1-β (Rhesus macaque PBMC [6]): significant decrease | IL-12p40 (Rhesus macaque PBMC [6]): significant decrease | Levels of IL-8 (Rhesus macaque PBMC [6]): did not alter | Levels of MIP1-α (Rhesus macaque PBMC [6]): did not alter | TNF-α (Rhesus macaque PBMC [6]): significant decrease | release of IL-2 (Rhesus macaque PBMC [6]): decreased release | absolute T cell numbers (in words) (human PBMC [7]): no significant depletion | expression levels of CD4 and CD8 on PBMC (in words) (human PBMC [7]): No decrease | percentage of cells positive for CD4 and CD8 (human PBMC [7]): not | CD69+CD4+ T cells (in words) (human PBMC [10]): No effect | IL-2R (CD25) expression in CD4+ and CD8+ T cells (in words) (human PBMC [10]): No effect | percentage of CD69+ CD8+ T cells (in words) (human PBMC [10]): No effect | percentages of both CD69+CD4+ T cells and CD69+CD8+ T cells (in words) (human PBMC [10]): No effect
